One may read the Kd as the concentration at which binding is half-saturated. As a reminder, the IC50 is the concentration at which inhibition is half-maximal. High values mean weaker potency in that assay, low ones greater potency in that assay.

The target in experiment [1] is T1, SOS1 catalytic domain (residues 564-1049) (Homo sapiens, UniProt Q07889).
T1 construct: SOS1 catalytic domain (residues 564-1049) immobilized on a sensor chip
T1 sequence (Q07889 564-1049): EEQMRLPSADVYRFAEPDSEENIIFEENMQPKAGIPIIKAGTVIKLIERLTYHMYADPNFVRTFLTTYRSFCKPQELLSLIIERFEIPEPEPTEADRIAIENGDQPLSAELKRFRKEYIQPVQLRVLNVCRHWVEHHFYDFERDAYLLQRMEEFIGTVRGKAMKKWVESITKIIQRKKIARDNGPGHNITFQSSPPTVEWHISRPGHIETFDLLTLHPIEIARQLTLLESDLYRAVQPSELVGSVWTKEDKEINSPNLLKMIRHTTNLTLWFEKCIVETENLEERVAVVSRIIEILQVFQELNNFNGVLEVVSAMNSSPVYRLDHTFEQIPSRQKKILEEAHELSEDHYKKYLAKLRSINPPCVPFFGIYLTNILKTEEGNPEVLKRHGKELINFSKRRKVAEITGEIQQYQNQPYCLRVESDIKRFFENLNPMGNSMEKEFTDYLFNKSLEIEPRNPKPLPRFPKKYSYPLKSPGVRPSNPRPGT
Briefly: Binding affinity to SOS1 using Surface Plasmon Resonance (SPR). The conditions noted are these: avi-tagged SOS1 catalytic domain immobilized on sensor chip; read-out: SOS1 SPR Equilibrium Kd. An excerpt: Potency Assay: Measurement of the Binding Affinity of Compounds of the Invention to SOS! using Surface Plasmon Resonance (SPR)
The purpose of the SPR assay was to measure the direct binding of compounds to SOS1 catalytic domain (residues 564-1049) immobilized on a sensor chip. Data was reported as equilibrium dissociation constant (Kd) values.
Using a GE Biacore 8K SPR instrument, avi-tagged SOS1 catalytic domain protein was immobilized to a level of approximately 6000 response units (RU) on a streptavidin-coated SPR sensor chip in assay buffer containing 0.01 M HEPES, 0.15 M NaCl and 0.05% v/v Surfactant P20. In assay buffer containing 2% DMSO, concentration series of test compounds were generated spanning 5 μM to 4.9 nM over ten 2-fold dilutions. For each test compound, a separate 0 μM sample was generated for use during subsequent double reference subtraction. Serially for each test compound, individual dilution samples were flowed over the immobilized SOS1 protein at a flow rate of 50 μL/minute to monitor the association with SOS1. Dissociation of bound test compound from the SOS1 protein was immediately monitored by flowing assay buffer over the sensor surface and monitoring the decrease in binding signal back to the baseline level seen in the absence of compound. This was repeated for all compound dilutions in each series. The binding level response for each test compound concentration was noted immediately prior to the end of the association phase, and a secondary plot generated showing binding response level versus test compound concentration generated for each compound dilution series.

In experiment [2] the target is T2, SOS1 nucleotide exchange of KRAS (catalytic domain of SOS1, residues 564-1049; wild-type KRAS) (Homo sapiens, UniProt Q07889).
T2 construct: tagless catalytic domain of SOS1 (residues 564-1049)
T2 sequence (Q07889 564-1049): T1 sequence (Q07889 564-1049)
Briefly: Mode of Action Assay: Inhibition of SOS1 Nucleotide Exchange Activity (TR-FRET). The class given is biochemical. The conditions noted are these: TR-FRET signal. How it is done:
The purpose of this assay was to characterize the inhibitory activity of compounds on SOS1 nucleotide exchange of KRAS. Data was reported as IC50 values based on the TR-FRET signal.
Note—the following protocol describes a procedure for monitoring the inhibition of SOS1 nucleotide exchange activity of wild-type KRAS in response to a compound of the invention. Other KRAS mutants and RAS isoforms maybe employed.
In assay buffer containing 20 mM HEPES, pH 7.5, 150 mM NaCl, 5 mM MgCl2, 0.05% Tween-20, 0.1% BSA, 1 mM DTT, concentration series of test compounds were generated spanning 100 μM to 1.7 nM over eleven 3-fold serial dilutions in a 384-well assay plate at a volume of 20 μL. The purified tagless catalytic domain of SOS1 (residues 564-1049) was first diluted in assay buffer at a concentration of 100 nM, and then 20 μL of the SOS1 containing solution was directly dispensed into compound plates. The SOS1/compound mixture was incubated at room temperature with constant mixing on an orbital shaker for 20 minutes to allow the reaction to reach equilibrium. A KRAS mixture was prepared by diluting 66.7 nM avi-tagged KRAS (residue 1-169), 3.33 nM Streptavidin-Tb and 333 nM EDA-GTP-DY-647P1 in assay buffer. This mixture was prepared immediately before addition to the SOS1/compound mixture to prevent intrinsic nucleotide exchange. Then 5 μL of the pre-incubated SOS1/compound mixture and 7.5 μL of the KRAS mixture were added sequentially in a 384-well low volume black round bottom plate and incubated at room temperature with constant shaking for 30 minutes. Time-resolved fluorescence was measured on a PerkinElmer Envision plate reader. DMSO and 10 μM of compound (i) were used as negative and positive controls, respectively.
Three replicates were performed for each compound. Data were normalized by the following: (Positive control—Sample signal)/(Positive control—negative control)*100. The data were fit using a four-parameter logistic fit.
On the technique in general: In TR-FRET formats the signal depends on donor and acceptor labels being close together.

As to `C[C@@H](Nc1ncnc2cn(CC3CCOC3)cc12)c1cc(N)cc(C(F)(F)F)c1` (stereo partly drawn) [Example 32, N-[(1R)-1-[3-amino-5-(trifluoromethyl)phenyl]ethyl]-6-(tetrahydrofuran-3-ylmethyl)pyrrolo[3,4-d]pyrimidin-4-amine], in experiment [1], the Kd is not above 400 nM. With `Cc1nc(N[C@H](C)c2cc(N)cc(C(F)(F)F)c2)c2cc(-c3ccnc(N4CCOCC4)c3)cn2n1` [Example 63, N-[(1R)-1-[3-amino-5-(trifluoromethyl)phenyl]ethyl]-2-methyl-6-[2-(morpholin-4-yl)pyridin-4-yl]pyrrolo[2,1-f][1,2,4]triazin-4-amine], in experiment [1], the Kd was not above 400 nM. In experiment [2], this compound displayed an IC50 of more than 1000 nM. For the compound `C[C@@H](Nc1ncnc2c1cc(C1=CCNCC1)n2C)c1cc(N)cc(C(F)(F)F)c1` [Example 67], in experiment [1], the Kd was not above 400 nM.

For `Cc1cn2nc(C(=O)N3CC4CC(C3)N4C)cc2c(N[C@H](C)c2cc(N)cc(C(F)(F)F)c2)n1` [Example 80], the IC50 in experiment [2] was more than 1000 nM.

The compound `Cc1nc(N[C@H](C)c2cc(N)cc(C(F)(F)F)c2)c2cc(C3=CCNCC3)sc2n1` [Example 46, N-[(1R)-1-[3-amino-5-(trifluoromethyl)phenyl]ethyl]-2-methyl-6-(1,2,3,6-tetrahydropyridin-4-yl)thieno[2,3-d]pyrimidin-4-amine] registered an IC50 in experiment [2] of more than 1000 nM. The same measure, in the same setting: under `Cc1cn2nc(C(=O)N3CCNCC(F)(F)C3)cc2c(N[C@H](C)c2cc(N)cc(C(F)(F)F)c2)n1` [Example 77] stands more than 1000 nM. Turning to `COc1cc2c(N[C@H](C)c3cc(N)cc(C(F)(F)F)c3)ncnn2c1` [Example 44, N-[(1R)-1-[3-amino-5-(trifluoromethyl)phenyl]ethyl]-6-methoxy-pyrrolo[2,1-f][1,2,4]triazin-4-amine], the Kd in experiment [1] is more than 400 nM. This compound registered an IC50 in experiment [2] of more than 1000 nM. For `Cc1nc(N[C@H](C)c2cc(N)cc(C(F)(F)F)c2)c2cc(CN3CCOCC3)cn2n1` [Example 34, N-[(1R)-1-[3-amino-5-(trifluoromethyl)phenyl]ethyl]-2-methyl-6-(morpholinomethyl)pyrrolo[2,1-f][1,2,4]triazin-4-amine] the same measures were more than 400 nM and more than 1000 nM. Regarding `C[C@@H](Nc1cc(C(F)(F)F)cn2nc(C3=CCNCC3)nc12)c1cc(N)cc(C(F)(F)F)c1` [Example 54, N-[(1R)-1-[3-amino-5-(trifluoromethyl)phenyl]ethyl]-2-(1,2,3,6-tetrahydropyridin-4-yl)-6-(trifluoromethyl)-[1,2,4]triazolo[1,5-a]pyridin-8-amine], the IC50 in experiment [2] is more than 1000 nM.

With `C[C@@H](Nc1nc(Cl)cc2nc(C(=O)N3CCOCC3)cn12)c1cccc(C(F)(F)CO)c1` [Example 86], the Kd in experiment [1] was not above 400 nM. The same compound registered an IC50 in experiment [2] of less than 1000 nM. For `C[C@@H](Nc1nccc2nc(C(=O)N3CC4(CN(CC(F)F)C4)C3)cn12)c1cccc(C(F)F)c1F` [Example 93] the same measures were not above 400 nM and less than 1000 nM. In the same order, the values of `CC(=O)N1CCN(c2cc3c(N[C@H](C)c4cccc(C(F)(F)F)c4)ncnn3c2)CC1` [Example 45, 1-[4-[4-[[(1R)-1-[3-(trifluoromethyl)phenyl]ethyl]amino]pyrrolo[2,1-f][1,2,4]triazin-6-yl]piperazin-1-yl]ethenone] are not above 400 nM and more than 1000 nM. Turning to `C[C@@H](Nc1nccc2nc(C(=O)N3CC4(CN(CCF)C4)C3)cn12)c1cccc(C(F)F)c1F` [Example 92], the Kd in experiment [1] is not above 400 nM. In experiment [2], this compound returned an IC50 of less than 1000 nM.

For `C[C@@H](Nc1ccnc2cc(C3=CCNCC3)nn12)c1cc(N)cc(C(F)(F)F)c1` [Example 52, N-[(1R)-1-[3-amino-5-(trifluoromethyl)phenyl]ethyl]-2-(1,2,3,6-tetrahydropyridin-4-yl)pyrazolo[1,5-a]pyrimidin-7-amine], the Kd in experiment [1] was not above 400 nM. The IC50 in experiment [2] is more than 1000 nM. In the same order, the values of `Cc1cn2nc(C(=O)N3CCN(C)CC3)cc2c(N[C@H](C)c2cc(N)cc(C(F)(F)F)c2)n1` [Example 59] are not above 400 nM and more than 1000 nM. In turn, `Cc1cn2nc(C(=O)N3CC(N4CCC4)C3)cc2c(N[C@H](C)c2cc(N)cc(C(F)(F)F)c2)n1` [Example 79] displayed an IC50 in experiment [2] of more than 1000 nM. Still for that read-out and setting: under `C[C@@H](Nc1cccc2nc(C3=CCNCC3)nn12)c1cc(N)cc(C(F)(F)F)c1` [Example 55, N-[(1R)-1-[3-amino-5-(trifluoromethyl)phenyl]ethyl]-2-(1,2,3,6-tetrahydropyridin-4-yl)-[1,2,4]triazolo[1,5-a]pyridin-5-amine] stands more than 1000 nM. With `CC(=O)N1CCN(c2cc3c(N[C@H](C)c4cc(N)cc(C(F)(F)F)c4)ncnn3c2)CC1` [Example 43, 1-[4-[4-[[(1R)-1-[3-amino-5-(trifluoromethyl)phenyl]ethyl]amino]pyrrolo[2,1-f][1,2,4]triazin-6-yl]piperazin-1-yl]ethanone], the Kd in experiment [1] is more than 400 nM. The compound also showed an IC50 in experiment [2] of more than 1000 nM. `COc1ncccc1-c1cc2c(N[C@H](C)c3cc(N)cc(C(F)(F)F)c3)nc(C)nn2c1` [Example 64, N-[(1R)-1-[3-amino-5-(trifluoromethyl)phenyl]ethyl]-6-(2-methoxypyridin-3-yl)-2-methylpyrrolo[2,1-f][1,2,4]triazin-4-amine]: the Kd in experiment [1] is more than 400 nM. Moreover, in experiment [2], the IC50 is more than 1000 nM. In the same order, the values of `Cc1cn2nc(C(=O)N3CCOCC3)cc2c(N[C@H](C)c2cc(N)cc(C(F)(F)F)c2)n1` [Example 58., 60.] are more than 400 nM and more than 1000 nM.

The values are drawn from US20230148450A9, “BICYCLIC HETEROARYL COMPOUNDS AND USES THEREOF” (Revolution Medicines, Inc., priority 2019, published 2023).
